Test results taken from patent US10000452B1, “Quinolone-based compounds, formulations, and uses thereof” (University of South Florida, priority 2016, dated 2018).
In brackets after ≈: the same amount, converted by molar mass. Several values for one entry are separate records, joined by “and”; a condition that tells them apart may be missing. Identical values can stand only once. Like-named read-outs stand apart in the source and are kept apart here.

Tests used:
[1] = tested on: P. berghei sporozoite infected mice; assay: in vivo efficacy against liver stages, bioluminescence imaging; settings: for % Inhibition Day 9 PI: single dose 1 hour after infection; for protection by bioluminescence imaging: 44 h, day 6, 9 and 13 PI, 25, 50, 100 mg/kg oral or subcutaneous, result in words
Experimental: Animals (n=5 per group) received a single dose by gavage 1 hour after inoculation with sporozoites. Representative images taken at 44 h, day 6, day 9, and day 13 after infection are shown. At 44 h, bioluminescent signal was detected in control untreated animals, with the highest intensity noted in the area overlaying the liver, consistent with the presence of liver-stage parasites.
At 44 h PI, day 6 PI, day 9 PI, and day 13 PI, compound efficacy was determined by bioluminescence imaging via injection of D-luciferin. Both compounds were administered orally or subcutaneously at increasing doses of 25 mg/kg, 50 mg/kg, and 100 mg/kg in PEG 400. […] Progression of parasitemia was monitored up to 30 days after infection (Table 8).

[2] = tested on: malarial strain W2 (pyrimethamine and chloroquine-resistant); assay: in vitro antimalarial activity against multidrug resistant strain W2; format: cell-based, P. falciparum; settings: Plasmodium falciparum, read-out: EC50 W2 (nM)
[3] = tested on: P. berghei sporozoites expressing luciferase; assay: in vitro liver stage activity, luciferase sporozoites infecting HEPG2 hepatoma cells; format: cell-based; settings: Plasmodium berghei, HEPG2 cells
[4] = aqueous solubility (LC/MS- or HPLC-based assay); format: physicochemical
In short: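 Aqueous solubility and log D (pH 7.4) determined by LC/MS-based assays; solubility examined at more than one pH.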

[5] = lipophilicity log D at pH 7.4; format: physicochemical; settings: octanol/water
Text: Furthermore, to profile the properties of the piperazinyl-4(1H)-quinolones, and to identify potential limitations, aqueous solubility and lipophilicity log D were experimentally determined via LC/MS-based assays as described by the Manetsch laboratory previously^8,10,31,32 (Tables 9-12). Encouragingly, the piperazinyl-4(1H)-quinolones were much more soluble than the previously described phenoxyethoxy-4(1H)-quinolone analogues.^19 As expected, the solubility of all compounds was affected by pH, with better solubility under more acidic conditions.
In parallel to testing the compounds for in vitro antimalarial activity, a limited structure-property relationship (SPR) study focusing on log D and aqueous solubility was conducted to assess potential physiochemical liabilities (FIG. 22). […] For these reasons, physicochemical properties were not strongly considered as selection criteria for in vivo efficacy studies.

[6] = tested on: malarial strain TM90-C2B (mefloquine, chloroquine, atovaquone, and pyrimethamine-resistant); assay: microbe, parasite or virus in culture; format: cell-based, P. falciparum; settings: Plasmodium falciparum, TM90, read-out: EC50 TM90-C2B (nM)
Text: Ideally, the RI of a compound should lie between 0.3 and 3.0 in order to avoid rapidly inducing resistance in the parasite. […]

Pb-infected mice = assay: in vivo efficacy scouting assay against blood stages; set-up: species or system P. berghei; mice; settings: single oral 50 mg/kg dose 1 day PI; for activities in these scout assays: result in words
Experimental: The screening involved a single oral 50 mg/kg dose 1 day post infection (PI) and an assessment of parasitemia on days 3 PI and 6 PI (Table 6).
The screening was performed by treating two infected mice with a single 50 mg/kg oral dose of test compound suspended in PEG400 on day 1 postexposure (PE) followed by assessing parasitemia on days 3 and 6 PE.

J774 mammalian cells = assay: cytotoxicity to J774 cells; format: cell-based; settings: Mus musculus, J774, read-out: EC50 J774 (μM)
Experimental: This allowed a simplified method for comparing the different assays being simultaneously run. Additionally, each compound was also tested for cytotoxicity using mammalian J774 cell lines in a 96-well plate format.^12-14, 16

[7] = aqueous medium, pH 2, simulated gastric fluid, pH 2.0, read-out: Solubility pH 2.0
[8] = aqueous medium, pH 6.5, aqueous buffer, pH 6.5, read-out: Solubility pH 6.5

Row | Compound | No. of Cures ([1]; 25 mg/kg oral) | % Inhibition Day 9 PI ([1]; 25 mg/kg oral) | No. of Cures ([1]; 50 mg/kg oral) | % Inhibition Day 9 PI ([1]; 50 mg/kg oral) | No. of Cures ([1]; 50 mg/kg subcutaneous) | % Inhibition Day 9 PI ([1]; 50 mg/kg subcutaneous) | No. of Cures ([1]; 100 mg/kg oral) | protection by bioluminescence imaging [1] | EC50 [2] | EC50 [3] | solubility [4, 7] | solubility [4, 8] | chromatographic logD [5] | EC50 [6] | activities in these scout assays (Pb-infected mice) | % Inhibition Day 6 PI (Pb-infected mice; vs untreated animals) | EC50 (J774 mammalian cells) | also measured
1 | COC(=O)c1c[nH]c2cc(CN3CCN(c4ccccc4)CC3)ccc2c1=O [Compound 8j, Methyl 4-oxo-7-((4-phenylpiperazin-1-yl)methyl)-1,4-dihydroquinoline-3-carboxylate] | 2/5 | 65.3% | 2/5 | 85.1% | 3/5 | >99.0% | 5/5 | no luminescence was observed | 1.25 nM | 4.74 nM | ≥ 80 µM | ≥ 80 µM | 0.86 | 483 nM |  |  |  | % Inhibition Day 9 PI ([1]; 100 mg/kg oral): >99.0%; animals cured (survival curves) ([1]; over all doses tested, 25-100 mg/kg): two or more out of five
2 | COC(=O)c1c[nH]c2cc(CN3CCN(Cc4ccc(OC)cc4)CC3)ccc2c1=O [Compound 8l, Methyl 7-((4-(4-methoxybenzyl)piperazin-1-yl)methyl)-4-oxo-1,4-dihydroquinoline-3-carboxylate] | 0/5 | 49.1% | 0/5 |  | 0/5 | 20.1% | one of five and 1/5 | full protection at all time points only at an oral dose of 100 mg/kg | 2.5 nM | 83.4 nM | ≥ 80 µM | ≥ 80 µM | 1.66 | 799 nM |  |  |  | inhibition in vivo at 50 mg/kg (Pb-infected mice; Plasmodium berghei, 144 h, vs untreated animals, read-out: % Inhibition Day 6 PI): ~40%
3 | COC(=O)c1c[nH]c2cc(CN3CCN(c4ccccc4)CC3)c(OC)cc2c1=O [Compound 8w, Methyl 6-methoxy-4-oxo-7-((4-phenylpiperazin-1-yl)methyl)-1,4-dihydroquinoline-3-carboxylate] |  |  |  |  |  |  |  |  | 1.62 nM | 113 nM | ≥ 80 µM | ≥ 80 µM | 1.32 | 493 nM | excellent activities | 82.4% | > 20 µM | 
4 | COC(=O)c1c[nH]c2cc(CN3CCN(Cc4ccccc4)CC3)c(OC)cc2c1=O [Compound 8x, Methyl 7-((4-benzylpiperazin-1-yl)methyl)-6-methoxy-4-oxo-1,4-dihydroquinoline-3-carboxylate] |  |  |  |  |  |  |  |  | 5.45 nM | 9.26 nM | ≥ 80 µM | 60 to 79.9 µM (≈ 25.3 to 33.7 µg/mL) | 1.28 | 2830 nM |  | little to moderate protection | > 20 µM | 
5 | COC(=O)c1c[nH]c2cc(CN3CCN(c4ccc(OC)cc4)CC3)c(OC)cc2c1=O [Compound 8z, Methyl 6-methoxy-7-((4-(4-methoxyphenyl)piperazin-1-yl)methyl)-4-oxo-1,4-dihydroquinoline-3-carboxylate] |  |  |  |  |  |  |  |  | 3.38 nM | 10.4 nM |  |  | 2.19 | 861 nM | excellent activities | 70.6% | 15.7 µM | solubility ([4]; aqueous solution, pH 2, simulated gastric fluid, pH 2.0, read-out: Solubility pH 2.0): ≥ 80 µM; solubility ([4]; aqueous solution, pH 6.5, aqueous buffer, pH 6.5, read-out: Solubility pH 6.5): ≥ 80 µM
6 | COc1cc(NC(C)CCCN)c2ncccc2c1 (stereo not shown) [Primaquine, reference compound] |  |  | 2/5 | >99.0% |  |  |  |  |  |  |  |  |  |  |  |  |  | 
